Source: publication PMC3950950, “Fluorescent sensors for activity and regulation of the nitrate transceptor CHL1/NRT1.1 and oligopeptide transporters” (eLife, 2014)
Residues, ends and D or L forms follow the SMILES beside them.

Key:
Assay type in all cases: cell-based
PepTrac1 (PTR1 fusion) = target: T1, PepTrac1 (PTR1 fusion) (Arabidopsis thaliana, UniProt Q9M390); test: fluorescence response (donor quenching) of sensor in yeast; conditions: 0.5 mM diglycine; 50 mM MES pH 5.5; excitation 428 nm
T1 construct: gene NPF8.1; full-length ORF between N-terminal Aphrodite and C-terminal mCerulean; expressed in yeast; intact cells
T1 sequence (Q9M390 1-570): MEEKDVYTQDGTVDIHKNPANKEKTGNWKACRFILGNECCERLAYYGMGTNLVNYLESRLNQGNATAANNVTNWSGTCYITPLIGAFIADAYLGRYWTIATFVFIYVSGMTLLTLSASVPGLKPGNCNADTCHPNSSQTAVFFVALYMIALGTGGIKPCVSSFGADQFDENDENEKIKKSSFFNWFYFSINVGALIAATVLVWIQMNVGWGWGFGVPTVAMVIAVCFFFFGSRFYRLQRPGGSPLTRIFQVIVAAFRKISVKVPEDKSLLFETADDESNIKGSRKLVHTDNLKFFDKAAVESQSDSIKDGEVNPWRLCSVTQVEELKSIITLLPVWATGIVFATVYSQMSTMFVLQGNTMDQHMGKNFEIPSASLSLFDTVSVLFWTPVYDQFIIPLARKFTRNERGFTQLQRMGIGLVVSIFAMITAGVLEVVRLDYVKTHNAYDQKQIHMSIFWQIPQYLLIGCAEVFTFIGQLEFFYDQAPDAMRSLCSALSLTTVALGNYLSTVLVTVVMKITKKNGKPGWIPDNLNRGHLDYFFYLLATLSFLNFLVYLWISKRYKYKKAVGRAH

PepTrac5 (PTR5 fusion) = target: T2, PepTrac5 (PTR5 fusion) (Arabidopsis thaliana, UniProt Q9LFB8); test: as above; conditions: 0.5 mM diglycine; 50 mM MES pH 5.5; excitation 428 nm
T2 construct: gene NPF8.2; full-length ORF between N-terminal Aphrodite and C-terminal mCerulean; expressed in yeast; intact cells
T2 sequence (Q9LFB8 1-570): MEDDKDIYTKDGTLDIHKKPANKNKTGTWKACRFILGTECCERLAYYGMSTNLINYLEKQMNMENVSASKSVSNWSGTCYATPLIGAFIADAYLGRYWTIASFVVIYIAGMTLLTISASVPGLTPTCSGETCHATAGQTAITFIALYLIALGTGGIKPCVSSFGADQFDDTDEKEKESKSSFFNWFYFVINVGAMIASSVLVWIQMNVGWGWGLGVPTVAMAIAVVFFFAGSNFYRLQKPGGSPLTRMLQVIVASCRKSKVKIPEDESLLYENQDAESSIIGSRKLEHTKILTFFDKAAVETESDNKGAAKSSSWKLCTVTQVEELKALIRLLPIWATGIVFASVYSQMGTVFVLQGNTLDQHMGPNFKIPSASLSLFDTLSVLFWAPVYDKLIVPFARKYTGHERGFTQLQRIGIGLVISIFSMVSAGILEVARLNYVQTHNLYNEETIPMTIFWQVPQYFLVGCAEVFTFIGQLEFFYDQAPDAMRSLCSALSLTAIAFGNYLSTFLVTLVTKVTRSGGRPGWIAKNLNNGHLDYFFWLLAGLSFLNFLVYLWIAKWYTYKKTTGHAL

PepTrac2 (PTR2 fusion) = target: T3, PepTrac2 (PTR2 fusion) (Arabidopsis thaliana, UniProt P46032); test: as above; conditions: 0.5 mM diglycine; 50 mM MES pH 5.5; excitation 428 nm
T3 construct: gene NPF8.3; full-length ORF between N-terminal Aphrodite and C-terminal mCerulean; expressed in yeast; intact cells
T3 sequence (P46032 1-585): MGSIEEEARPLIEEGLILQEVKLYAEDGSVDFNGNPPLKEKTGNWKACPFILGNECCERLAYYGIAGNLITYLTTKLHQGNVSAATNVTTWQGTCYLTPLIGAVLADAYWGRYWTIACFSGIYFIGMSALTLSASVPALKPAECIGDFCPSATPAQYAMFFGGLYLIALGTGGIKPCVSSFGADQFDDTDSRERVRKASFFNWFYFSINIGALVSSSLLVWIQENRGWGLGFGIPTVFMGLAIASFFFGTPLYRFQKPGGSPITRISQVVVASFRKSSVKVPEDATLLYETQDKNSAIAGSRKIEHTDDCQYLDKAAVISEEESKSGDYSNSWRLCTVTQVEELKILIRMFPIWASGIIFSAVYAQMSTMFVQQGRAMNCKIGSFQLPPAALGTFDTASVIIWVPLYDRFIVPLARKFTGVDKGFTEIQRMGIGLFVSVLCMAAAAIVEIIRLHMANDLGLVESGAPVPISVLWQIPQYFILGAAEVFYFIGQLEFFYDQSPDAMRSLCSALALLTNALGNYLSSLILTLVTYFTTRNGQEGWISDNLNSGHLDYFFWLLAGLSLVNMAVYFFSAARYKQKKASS

PepTrac4 (PTR4 fusion) = target: T4, PepTrac4 (PTR4 fusion) (Arabidopsis thaliana, UniProt Q84WG0); test: FRET ratio change of sensor in yeast; conditions: 0.5 mM diglycine; 50 mM MES pH 5.5; excitation 428 nm
T4 construct: gene NPF8.4; full-length ORF between N-terminal Aphrodite and C-terminal mCerulean; expressed in yeast; intact cells
T4 sequence (Q84WG0 1-545): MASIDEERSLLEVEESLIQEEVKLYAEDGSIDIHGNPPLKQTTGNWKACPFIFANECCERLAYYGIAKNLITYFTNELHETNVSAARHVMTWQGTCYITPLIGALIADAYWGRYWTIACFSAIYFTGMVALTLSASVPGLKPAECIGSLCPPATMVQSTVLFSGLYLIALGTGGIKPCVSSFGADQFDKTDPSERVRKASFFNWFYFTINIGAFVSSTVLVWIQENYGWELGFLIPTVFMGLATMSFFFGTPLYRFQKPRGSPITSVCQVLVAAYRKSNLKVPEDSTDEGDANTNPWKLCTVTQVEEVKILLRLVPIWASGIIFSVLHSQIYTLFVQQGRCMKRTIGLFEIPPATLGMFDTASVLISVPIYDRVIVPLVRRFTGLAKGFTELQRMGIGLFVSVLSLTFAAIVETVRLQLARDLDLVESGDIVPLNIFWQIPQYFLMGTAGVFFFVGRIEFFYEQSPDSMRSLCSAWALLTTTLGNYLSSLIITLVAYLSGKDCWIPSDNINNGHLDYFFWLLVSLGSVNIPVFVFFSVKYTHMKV

CHL1/NRT1.1/NPF6.3 = target: T5, CHL1/NRT1.1/NPF6.3 (Arabidopsis thaliana, UniProt Q05085); test: […]-nitrate uptake and TEVC currents in Xenopus oocytes; conditions: 0.25 and 10 mM K15NO3, pH 5.5 (uptake); 0.5 and 10 mM CsNO3 (TEVC)
T5 construct: CHL1 cDNA without fluorescent proteins in pOO2-GW; cRNA-injected Xenopus laevis oocytes
T5 sequence (Q05085 1-590): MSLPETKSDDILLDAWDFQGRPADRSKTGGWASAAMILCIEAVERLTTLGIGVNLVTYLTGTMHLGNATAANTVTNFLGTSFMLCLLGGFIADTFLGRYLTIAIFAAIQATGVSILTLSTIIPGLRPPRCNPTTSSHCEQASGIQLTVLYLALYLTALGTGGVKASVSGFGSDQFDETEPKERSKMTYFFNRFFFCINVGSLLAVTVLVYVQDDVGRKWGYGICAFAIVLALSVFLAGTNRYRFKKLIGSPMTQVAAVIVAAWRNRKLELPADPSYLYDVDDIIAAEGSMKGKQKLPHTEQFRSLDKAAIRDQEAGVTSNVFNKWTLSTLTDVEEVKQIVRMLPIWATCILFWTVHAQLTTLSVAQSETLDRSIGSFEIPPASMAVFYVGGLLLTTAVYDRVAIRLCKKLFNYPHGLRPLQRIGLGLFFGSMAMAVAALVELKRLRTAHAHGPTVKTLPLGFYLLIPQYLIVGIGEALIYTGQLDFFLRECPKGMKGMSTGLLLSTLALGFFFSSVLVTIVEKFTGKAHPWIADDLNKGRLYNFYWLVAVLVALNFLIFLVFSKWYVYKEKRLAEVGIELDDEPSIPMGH

[1] = target: T6, NiTrac1 (CHL1/NRT1.1/NPF6.3 fusion) (Arabidopsis thaliana, UniProt Q05085); test: fluorescence response (donor quenching) of sensor in yeast, plate reader; conditions: 50 mM MES pH 5.5; high-affinity phase of biphasic response (low-affinity phase is a second site); excitation 428 nm
T6 construct: full-length ORF between N-terminal Aphrodite t9 (yellow FP) and C-terminal mCerulean (pDRFlip30); expressed in yeast BJ5465; intact cells
T6 sequence (Q05085 1-590): T5 sequence (Q05085 1-590)

| Compound | fluorescence response (donor quenching) of sensor in yeast (PepTrac1 (PTR1 fusion)) | fluorescence response (donor quenching) of sensor in yeast (PepTrac5 (PTR5 fusion)) | fluorescence response (donor quenching) of sensor in yeast (PepTrac2 (PTR2 fusion)) | FRET ratio change of sensor in yeast (PepTrac4 (PTR4 fusion)) | 15N-nitrate uptake and TEVC currents in Xenopus oocytes (CHL1/NRT1.1/NPF6.3) | Km [1] |
| --- | --- | --- | --- | --- | --- | --- |
| NCC(=O)NCC(=O)O [diglycine] (H-Gly-Gly-OH) | PepTrac1, PepTrac2, and PepTrac5 sensors all responded with donor quenching | PepTrac1, PepTrac2, and PepTrac5 sensors all responded with donor quenching | PepTrac1, PepTrac2, and PepTrac5 sensors all responded with donor quenching | PepTrac4 responded to substrate addition with a ratio change |  |  |
| O=[N+]([O-])O [nitrate] |  |  |  |  | In response to nitrate addition, CHL1 expressing oocytes showed an inward current | ~ 75.1 ± 21 μM |
